Active and inactive are the calls of the source. A value given as a limit tells only on which side of the number the result lay.

This is an account of results in ChEMBL document CHEMBL3991601, “The target landscape of clinical kinase drugs” (Science, 2017).

The target in assay [1] is Putative heat shock protein HSP 90-beta 2 (Homo sapiens, UniProt Q58FF8).
Assay [2] has as its target T1, Very long-chain specific acyl-CoA dehydrogenase, mitochondrial (Homo sapiens, UniProt P49748).
T1 sequence (P49748 whole entry): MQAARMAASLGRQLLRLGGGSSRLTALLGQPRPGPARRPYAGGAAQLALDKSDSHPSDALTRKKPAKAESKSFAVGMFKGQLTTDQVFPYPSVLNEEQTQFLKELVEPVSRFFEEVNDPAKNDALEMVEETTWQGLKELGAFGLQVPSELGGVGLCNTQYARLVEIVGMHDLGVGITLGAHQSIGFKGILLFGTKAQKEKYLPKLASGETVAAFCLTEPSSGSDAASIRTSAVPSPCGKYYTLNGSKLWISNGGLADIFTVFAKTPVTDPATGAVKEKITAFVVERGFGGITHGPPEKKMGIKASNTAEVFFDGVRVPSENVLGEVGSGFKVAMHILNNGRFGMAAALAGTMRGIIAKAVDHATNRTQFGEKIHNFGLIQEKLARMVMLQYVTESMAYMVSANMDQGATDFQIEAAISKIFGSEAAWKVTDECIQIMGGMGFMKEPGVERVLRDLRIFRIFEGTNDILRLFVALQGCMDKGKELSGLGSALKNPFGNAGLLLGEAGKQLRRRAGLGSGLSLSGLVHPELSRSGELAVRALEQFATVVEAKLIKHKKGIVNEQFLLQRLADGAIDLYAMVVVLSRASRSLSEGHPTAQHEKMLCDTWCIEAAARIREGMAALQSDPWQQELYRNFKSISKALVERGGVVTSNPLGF

Assay [3] has as its target Mitogen-activated protein kinase 7 (Homo sapiens, UniProt Q13164).
Assay [4] deals with BMP-2-inducible protein kinase (Homo sapiens, UniProt Q9NSY1).
BMP-2-inducible protein kinase, sequence (Q9NSY1 whole entry): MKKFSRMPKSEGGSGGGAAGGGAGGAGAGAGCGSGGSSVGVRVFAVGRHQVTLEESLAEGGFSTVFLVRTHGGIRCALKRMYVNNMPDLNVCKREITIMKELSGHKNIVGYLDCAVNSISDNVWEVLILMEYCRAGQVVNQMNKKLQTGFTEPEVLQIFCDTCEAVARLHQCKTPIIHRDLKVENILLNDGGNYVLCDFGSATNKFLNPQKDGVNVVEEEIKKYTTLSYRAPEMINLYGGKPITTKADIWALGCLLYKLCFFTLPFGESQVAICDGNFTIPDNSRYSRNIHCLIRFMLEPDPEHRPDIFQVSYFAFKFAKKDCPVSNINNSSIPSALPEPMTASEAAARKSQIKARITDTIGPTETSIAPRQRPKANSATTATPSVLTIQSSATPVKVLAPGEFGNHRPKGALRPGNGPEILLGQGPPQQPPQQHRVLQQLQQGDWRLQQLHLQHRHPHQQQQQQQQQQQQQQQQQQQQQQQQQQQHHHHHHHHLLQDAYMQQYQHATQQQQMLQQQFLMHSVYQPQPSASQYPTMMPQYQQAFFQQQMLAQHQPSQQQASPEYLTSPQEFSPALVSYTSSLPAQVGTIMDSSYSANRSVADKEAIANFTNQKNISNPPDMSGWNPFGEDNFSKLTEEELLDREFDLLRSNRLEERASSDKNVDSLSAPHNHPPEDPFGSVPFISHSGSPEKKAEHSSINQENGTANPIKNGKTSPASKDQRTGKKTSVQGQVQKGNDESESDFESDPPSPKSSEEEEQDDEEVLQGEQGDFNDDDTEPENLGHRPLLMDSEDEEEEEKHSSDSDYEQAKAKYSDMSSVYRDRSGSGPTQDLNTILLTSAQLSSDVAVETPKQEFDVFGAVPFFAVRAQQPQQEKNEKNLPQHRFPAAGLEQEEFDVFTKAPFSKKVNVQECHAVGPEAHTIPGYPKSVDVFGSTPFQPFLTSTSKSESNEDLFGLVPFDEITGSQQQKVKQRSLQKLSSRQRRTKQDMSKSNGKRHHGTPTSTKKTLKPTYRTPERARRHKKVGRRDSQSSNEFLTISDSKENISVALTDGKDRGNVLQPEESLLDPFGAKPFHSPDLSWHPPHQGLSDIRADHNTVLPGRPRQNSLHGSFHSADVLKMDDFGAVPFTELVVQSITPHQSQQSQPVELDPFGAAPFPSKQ
Assay [5] has as its target T2, Acyl-CoA dehydrogenase family member 10 (Homo sapiens, UniProt Q6JQN1).
T2 sequence (Q6JQN1 whole entry): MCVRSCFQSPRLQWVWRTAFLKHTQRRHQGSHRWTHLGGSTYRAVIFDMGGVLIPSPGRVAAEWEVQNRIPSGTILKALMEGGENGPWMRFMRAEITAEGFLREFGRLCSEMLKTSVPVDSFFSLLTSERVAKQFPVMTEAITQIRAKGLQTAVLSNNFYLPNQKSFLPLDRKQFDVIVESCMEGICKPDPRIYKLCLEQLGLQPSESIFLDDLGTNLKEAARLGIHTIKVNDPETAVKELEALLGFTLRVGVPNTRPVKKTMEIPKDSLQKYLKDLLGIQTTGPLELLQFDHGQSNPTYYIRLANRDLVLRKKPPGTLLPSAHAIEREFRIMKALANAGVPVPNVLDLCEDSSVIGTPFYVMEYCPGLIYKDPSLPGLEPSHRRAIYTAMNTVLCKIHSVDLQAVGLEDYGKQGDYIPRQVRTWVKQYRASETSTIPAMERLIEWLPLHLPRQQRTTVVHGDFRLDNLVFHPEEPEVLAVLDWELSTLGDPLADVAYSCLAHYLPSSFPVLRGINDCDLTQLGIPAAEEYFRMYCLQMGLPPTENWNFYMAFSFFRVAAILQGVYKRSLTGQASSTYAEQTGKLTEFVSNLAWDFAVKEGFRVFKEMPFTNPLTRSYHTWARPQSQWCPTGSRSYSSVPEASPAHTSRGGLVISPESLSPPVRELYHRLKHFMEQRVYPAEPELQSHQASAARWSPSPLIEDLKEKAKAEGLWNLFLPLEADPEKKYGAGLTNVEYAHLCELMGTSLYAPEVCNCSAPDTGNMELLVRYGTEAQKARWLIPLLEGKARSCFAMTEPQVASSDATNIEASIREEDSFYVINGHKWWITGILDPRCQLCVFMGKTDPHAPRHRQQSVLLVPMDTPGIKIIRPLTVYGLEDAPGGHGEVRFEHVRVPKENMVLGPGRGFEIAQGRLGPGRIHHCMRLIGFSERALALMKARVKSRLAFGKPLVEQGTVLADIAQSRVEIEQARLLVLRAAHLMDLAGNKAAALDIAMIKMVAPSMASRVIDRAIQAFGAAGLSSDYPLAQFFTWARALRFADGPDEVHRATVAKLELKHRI

In a further assay the target is Adenosine kinase (Homo sapiens, UniProt P55263).
Adenosine kinase, sequence (P55263 whole entry): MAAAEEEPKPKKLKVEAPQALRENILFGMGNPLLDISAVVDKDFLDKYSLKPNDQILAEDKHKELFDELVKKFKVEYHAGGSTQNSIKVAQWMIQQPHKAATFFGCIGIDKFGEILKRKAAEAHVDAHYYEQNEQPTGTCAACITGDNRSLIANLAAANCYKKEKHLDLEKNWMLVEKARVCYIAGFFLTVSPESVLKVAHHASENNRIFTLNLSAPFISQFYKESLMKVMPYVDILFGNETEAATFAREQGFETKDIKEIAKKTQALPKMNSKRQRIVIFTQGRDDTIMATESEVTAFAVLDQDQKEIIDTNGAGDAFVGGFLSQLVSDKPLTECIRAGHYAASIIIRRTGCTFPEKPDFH
Assay [6] concerns the target Serine/threonine-protein kinase PAK 4 (Homo sapiens, UniProt O96013).
The next assay addresses T3, Rab-like protein 3 (Homo sapiens, UniProt Q5HYI8).
T3 sequence (Q5HYI8 whole entry): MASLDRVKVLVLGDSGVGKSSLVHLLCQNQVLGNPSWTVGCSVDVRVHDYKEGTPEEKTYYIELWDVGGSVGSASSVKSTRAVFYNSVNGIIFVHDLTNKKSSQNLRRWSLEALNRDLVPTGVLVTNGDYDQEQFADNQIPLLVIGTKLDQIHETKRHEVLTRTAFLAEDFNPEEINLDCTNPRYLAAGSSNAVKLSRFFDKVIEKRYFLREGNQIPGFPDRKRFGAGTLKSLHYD

Assay [7] deals with T4, Inhibitor of nuclear factor kappa-B kinase subunit epsilon (Homo sapiens, UniProt Q14164).
T4 sequence (Q14164 whole entry): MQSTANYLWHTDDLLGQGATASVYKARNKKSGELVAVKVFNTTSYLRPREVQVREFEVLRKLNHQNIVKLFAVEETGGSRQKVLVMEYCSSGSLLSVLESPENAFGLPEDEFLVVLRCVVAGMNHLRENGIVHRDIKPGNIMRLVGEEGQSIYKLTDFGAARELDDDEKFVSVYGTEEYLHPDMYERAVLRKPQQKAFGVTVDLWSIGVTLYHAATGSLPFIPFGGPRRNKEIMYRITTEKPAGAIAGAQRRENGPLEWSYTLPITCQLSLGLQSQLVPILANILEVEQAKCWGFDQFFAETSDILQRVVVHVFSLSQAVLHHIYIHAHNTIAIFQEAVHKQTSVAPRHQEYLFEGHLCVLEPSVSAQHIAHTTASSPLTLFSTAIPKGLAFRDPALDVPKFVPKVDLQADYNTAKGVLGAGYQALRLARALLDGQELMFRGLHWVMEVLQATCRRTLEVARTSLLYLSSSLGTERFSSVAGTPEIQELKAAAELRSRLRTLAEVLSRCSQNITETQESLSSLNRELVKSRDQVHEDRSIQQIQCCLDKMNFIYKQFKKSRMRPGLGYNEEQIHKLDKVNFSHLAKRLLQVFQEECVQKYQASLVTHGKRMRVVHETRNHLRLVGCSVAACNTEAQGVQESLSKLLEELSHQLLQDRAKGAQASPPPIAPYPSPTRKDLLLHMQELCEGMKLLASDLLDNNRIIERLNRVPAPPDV
Note: in the data inactive means no Kd found up to 30 µM.

Putative heat shock protein HSP 90-beta 2, sequence (Q58FF8 whole entry): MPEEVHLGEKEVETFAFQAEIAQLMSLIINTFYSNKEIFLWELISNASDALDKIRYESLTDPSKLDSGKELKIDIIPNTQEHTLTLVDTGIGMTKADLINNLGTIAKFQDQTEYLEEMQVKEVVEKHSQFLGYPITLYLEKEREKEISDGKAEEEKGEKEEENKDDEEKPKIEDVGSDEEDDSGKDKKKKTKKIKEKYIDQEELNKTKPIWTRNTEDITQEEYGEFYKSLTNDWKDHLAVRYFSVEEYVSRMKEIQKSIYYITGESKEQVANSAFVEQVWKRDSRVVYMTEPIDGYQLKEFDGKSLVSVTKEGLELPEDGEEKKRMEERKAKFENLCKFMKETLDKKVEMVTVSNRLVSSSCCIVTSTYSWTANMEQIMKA
Serine/threonine-protein kinase PAK 4, sequence (O96013 whole entry): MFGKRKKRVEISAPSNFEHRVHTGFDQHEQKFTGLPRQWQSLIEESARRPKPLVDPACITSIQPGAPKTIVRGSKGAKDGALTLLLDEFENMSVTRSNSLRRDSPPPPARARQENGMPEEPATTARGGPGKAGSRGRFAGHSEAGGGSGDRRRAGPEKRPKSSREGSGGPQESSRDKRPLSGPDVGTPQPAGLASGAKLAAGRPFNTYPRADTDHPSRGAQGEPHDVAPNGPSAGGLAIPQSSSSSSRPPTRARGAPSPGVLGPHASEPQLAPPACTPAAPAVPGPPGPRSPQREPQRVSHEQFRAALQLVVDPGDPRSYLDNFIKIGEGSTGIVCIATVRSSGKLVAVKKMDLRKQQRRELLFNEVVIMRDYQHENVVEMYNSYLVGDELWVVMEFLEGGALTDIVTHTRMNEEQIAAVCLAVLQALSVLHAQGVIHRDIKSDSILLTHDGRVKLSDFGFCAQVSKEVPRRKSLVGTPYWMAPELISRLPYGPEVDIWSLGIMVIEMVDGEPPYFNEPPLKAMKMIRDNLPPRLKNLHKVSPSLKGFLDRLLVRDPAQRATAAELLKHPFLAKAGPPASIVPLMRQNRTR
Mitogen-activated protein kinase 7, sequence (Q13164 whole entry): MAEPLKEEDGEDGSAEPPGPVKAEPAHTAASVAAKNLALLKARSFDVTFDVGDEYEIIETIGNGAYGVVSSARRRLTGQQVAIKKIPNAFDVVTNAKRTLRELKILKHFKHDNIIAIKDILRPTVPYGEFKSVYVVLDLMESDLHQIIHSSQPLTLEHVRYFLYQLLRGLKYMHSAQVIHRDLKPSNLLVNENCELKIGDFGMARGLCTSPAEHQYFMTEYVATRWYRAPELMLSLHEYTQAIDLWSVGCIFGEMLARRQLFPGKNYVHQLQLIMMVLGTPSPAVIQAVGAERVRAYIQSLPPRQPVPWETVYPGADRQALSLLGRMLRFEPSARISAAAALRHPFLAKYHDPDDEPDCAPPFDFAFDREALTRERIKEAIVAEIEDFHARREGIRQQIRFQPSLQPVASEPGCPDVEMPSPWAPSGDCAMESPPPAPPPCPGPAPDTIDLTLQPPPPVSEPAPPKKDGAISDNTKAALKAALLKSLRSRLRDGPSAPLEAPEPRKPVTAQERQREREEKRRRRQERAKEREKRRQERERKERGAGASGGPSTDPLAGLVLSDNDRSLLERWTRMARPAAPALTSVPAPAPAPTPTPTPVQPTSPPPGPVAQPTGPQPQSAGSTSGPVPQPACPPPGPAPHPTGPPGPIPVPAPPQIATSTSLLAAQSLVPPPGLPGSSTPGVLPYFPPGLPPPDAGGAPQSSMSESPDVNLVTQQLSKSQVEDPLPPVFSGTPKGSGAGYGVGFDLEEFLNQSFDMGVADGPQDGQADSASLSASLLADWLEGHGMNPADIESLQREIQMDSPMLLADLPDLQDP

Take `CC(=O)c1cnc2ccc(-c3cc(Cl)c(O)c(Cl)c3)nc2c1N[C@H]1CC[C@H](CN(C)C)CC1`: the Kd in assay [1] is > 30 µM (inactive); in [2], > 30 µM (inactive); in [3], > 30 µM (inactive); in assay [4], 0.245 µM (active); in assay [5], > 30 µM (inactive); at Adenosine kinase, > 30 µM (inactive). The Kd in [6] is 0.515 µM (active).
`CNC(=O)c1ccccc1Sc1ccc2c(/C=C/c3ccccn3)n[nH]c2c1` [AXITINIB]: the Kd (in assay [1]; in assay [2]; in assay [5]; on Adenosine kinase) was > 30 µM (inactive) throughout.
Turning to `Cc1cc(Nc2ncc(Cl)c(Nc3ccccc3S(=O)(=O)C(C)C)n2)c(OC(C)C)cc1C1CCNCC1` [CERITINIB], the Kd in assay [1] was > 30 µM (inactive); on Rab-like protein 3, > 30 µM (inactive); in assay [2] it was > 30 µM (inactive); in assay [3] it was 9.85 µM (active); in assay [7], > 30 µM (inactive); in [4], > 30 µM (inactive). The Kd (in assay [5]; at Adenosine kinase; in assay [6]) was > 30 µM (inactive) in each case.
In the case of `COc1c(OCCCN2CCOCC2)ccc2c1N=C(NC(=O)c1cnc(N)nc1)N1CCN=C21` [COPANLISIB], the Kd (in assay [1]; on Rab-like protein 3; in [2]; in [3]; in assay [7]; in assay [4]) was > 30 µM (inactive) each time. Moreover, the Kd (in assay [5]; at Adenosine kinase; in assay [6]) was > 30 µM (inactive) in each case.
In the case of `Cn1cc(C2=C(c3cn(C4CCN(Cc5ccccn5)CC4)c4ccccc34)C(=O)NC2=O)c2ccccc21` [ENZASTAURIN], the Kd (in assay [1]; at Rab-like protein 3; in [2]; in [5]; at Adenosine kinase) was > 30 µM (inactive) in each case.
`CCn1cc(-c2ccnc3[nH]c(-c4cccc(CN(C)C)c4)cc23)c(-c2ccc(NC(=O)N(C)C)cc2)n1` [GSK-1070916]: the Kd is > 30 µM (inactive) in assay [1]; > 30 µM (inactive) at Rab-like protein 3; > 30 µM (inactive) in assay [2]; > 30 µM (inactive) in [3]; 1.11 µM (active) in assay [5]; > 30 µM (inactive) on Adenosine kinase. Moreover, the Kd in assay [6] is > 30 µM (inactive).
As for `COc1ccc(S(=O)(=O)N(C(C)=O)c2ccccc2/C=C/c2cc[n+]([O-])cc2)cc1` [HMN-214], the Kd (in assay [1]; at Rab-like protein 3; in assay [2]; in assay [3]; in [7]; in assay [4]) was > 30 µM (inactive) throughout. In addition, the Kd (in [5]; at Adenosine kinase; in [6]) was > 30 µM (inactive) in each case.
Consider `CNC(=O)c1cc(Oc2ccc(NC(=O)Nc3cc(C(C)(C)C)nn3-c3ccc4ncccc4c3)c(F)c2)ccn1` [REBASTINIB], for which the Kd (in assay [1]; at Rab-like protein 3; in [2]; in assay [3]; in assay [7]; in assay [4]) was > 30 µM (inactive) in each case. Besides, the Kd (in assay [5]; at Adenosine kinase; in assay [6]) was > 30 µM (inactive) in each case.
As to `N#CC[C@H](C1CCCC1)n1cc(-c2ncnc3[nH]ccc23)cn1` [RUXOLITINIB], the Kd (in [1]; in assay [2]; in [5]; on Adenosine kinase) was > 30 µM (inactive) each time.
As to `CO[C@H]1C[C@@H]2CC[C@@H](C)[C@@](O)(O2)C(=O)C(=O)N2CCCC[C@H]2C(=O)O[C@H]([C@H](C)C[C@@H]2CC[C@@H](O)[C@H](OC)C2)CC(=O)[C@H](C)/C=C(\C)[C@@H](O)[C@@H](OC)C(=O)[C@H](C)C[C@H](C)/C=C/C=C/C=C/1C` [SIROLIMUS], the Kd in [1], in assay [2], in assay [3], in assay [7], in [4] and in assay [5] was > 30 µM (inactive) in each case. In addition, the Kd (at Adenosine kinase; in assay [6]) was > 30 µM (inactive) in each case.
As to `CC(C)c1cc(CNc2nc(Nc3cc(C4CC4)[nH]n3)cc(N3CCN(C)CC3)n2)on1` [XL-228], the Kd in assay [1] is > 30 µM (inactive); at Rab-like protein 3 it was > 30 µM (inactive); in assay [2], > 30 µM (inactive); in assay [3], > 30 µM (inactive); in assay [7] it was 1.39 µM (active); in assay [4] it was 0.014 µM (active). The same compound returned a Kd in assay [6] of 50.4 µM.
Regarding `C[C@@H](N)c1ccc(C(=O)Nc2ccnc3[nH]ccc23)cc1` [Y-39983], the Kd in assay [1] is > 30 µM (inactive); at Rab-like protein 3, > 30 µM (inactive); in assay [2], > 30 µM (inactive); in assay [3] it was > 30 µM (inactive); in assay [7], > 30 µM (inactive); in [4] it was 0.179 µM (active). In addition, the Kd (at Adenosine kinase; in assay [6]) was > 30 µM (inactive) each time.

By Kd is commonly meant the equilibrium constant for the complex coming apart.
